Source: US20220251109A1, “OXAAZAQUINAZOLINE-7(8H)-KETONE COMPOUND, PREPARATION METHOD THEREFOR AND PHARMACEUTICAL APPLICATION THEREOF” (GENFLEET THERAPEUTICS (SHANGHAI) INC., priority 2019, published 2022)
pIC50: −log10 of the molar value. Read-outs that look alike come from different tables or passages of the source.

Tests used:
Assay type in all cases: cell-based, human
[1] = system: NCI-H358 cells (Kras G12C mutation); assay: Cell proliferation inhibition experiment, 3D model, CellTiter-Glo (NCI-H358); details: NCI-H358, 3D sphere plate, 5 days, 2% FBS
Protocol: (§1) NCI-H358 was a human non-small cell lung cancer cell line with Kras G12C mutation, cultured in 10% FBS RPMI-1640 medium; A549 was a human lung adenocarcinoma cell line with Kras G12S mutation, cultured in 10% FBS F-12K medium. The cells in the logarithmic growth phase was taken, digested with trypsin EDTA, collected and counted, and H358 was adjusted to 1.8E4 cells/ml using 2% FBS RPMI-1640 medium, and A549 was adjusted to 8.9E3 cells/ml using 2% FBS F-12K medium; 800 (45 μl) H358 or 400 (45 μl) A549 cells were seeded in a 384-well sphere plate respectively, cultured overnight to establish a 3D cell model. DMSO was used to prepare 1000× compound 3.16-fold gradient concentration stock solution, and 2% FBS medium was used to dilute 100-fold to 10× compound stock solution. On the second day after cell seeding, 5 μl 10× compound stock solution was added to each cell culture well, the final concentration was 1×, and DMSO content was 0.1%. DMSO was used as the experimental control (control) and 2% FBS medium as the blank control (blank). After the compound and cells were added and cultured for 5 days, 25 μl CellTiter-Glo working solution was added to each well, mixed at 400 rpm and incubated for 30 minutes. After 30 minutes at room temperature, 40 μl of the mixture was transferred to a 384-well plate with a non-transparent white bottom, the luminescence chemiluminescence value was read, and the cells proliferation inhibition rate IR (%)=(RLU control-RLU compound)/(RLU control-RLU blank)×100% was calculated, Prism 6 four-parameter method was used to fit the compound's gradient dilution concentration and the corresponding cell proliferation inhibition rate, and the IC50 value was calculate.

[2] = system: A549 cells (Kras G12S mutation); assay: Cell proliferation inhibition experiment, 3D model, CellTiter-Glo (A549); details: A549, 3D sphere plate, 5 days, 2% FBS
Protocol: as §1

[3] = system: MIA PaCa-2 cells (Kras G12C mutation); assay: Cell proliferation inhibition experiment, 3D model, CellTiter-Glo (MIA PaCa-2); details: MIA PaCa-2, 3D sphere plate, 5 days, read-out: MIA-PaCa2 IC50
Protocol: MIA PaCa2 was a human pancreatic cancer cell line with Kras G12C mutation, cultured in 10% FBS+2.5% Horse serum DMEM medium; A549 was a human lung adenocarcinoma cell line with Kras G12S mutation, cultured in 10% FBS F-12K medium. The cells in the logarithmic growth phase were taken, digested with enzyme EDTA, collected, counted and 200 MIA PaCa-2 or 400 A549 cells were seeded in a 384-well sphere plate respectively, cultured overnight to establish a 3D cell model. DMSO was used to prepare 1000× compound 3.16-fold gradient concentration stock solution, and medium was used to dilute 100-fold to 10× compound stock solution. On the second day after cell seeding, 10× compound stock solution was added to each cell culture well, the final concentration was 1×, and DMSO content was 0.1%. DMSO was used as an experimental control (control), medium as the blank control (blank). After the compound and cells were added and cultured for 5 days, 30 μl CellTiter-Glo working solution was added to each well, mixed and incubated for 30 minutes. After 30 minutes at room temperature, 40 μl of the mixture was transferred to a 384-well plate with a non-transparent white bottom, the luminescence chemiluminescence value was read, and the cells proliferation inhibition rate IR (%)=(RLU control-RLU compound)/(RLU control-RLU blank)×100% was calculated, XLFit four-parameter method was used to fit the compound's gradient dilution concentration and the corresponding cell proliferation inhibition rate, and the IC50 value was calculate.

[4] = Homo sapiens, MIA PaCa-2, 120 h

SMILES | pIC50 [1] | pIC50 [2] | pIC50 [3] | pIC50 ([2]; Homo sapiens, A549, 120 h) | pIC50 [3, 4] | pIC50 ([1]; Homo sapiens, NCI-H358, 120 h)
C=CC(=O)N1CCN2c3nc(=O)n(-c4c(C)ccnc4C(C)C)c4cc(-c5c(O)cccc5F)c(Cl)c(c34)OC[C@H]2C1 (single isomer, unassigned) [Compound Z29-1] | 8.52 | < 5.00 | 8.10 | – | – | –
C=CC(=O)N1CCN2c3nc(=O)n(-c4ccccc4C(C)C)c4cc(-c5c(C)ccc6[nH]ncc56)c(Cl)c(c34)OC[C@@H]2C1 (single isomer, unassigned) [Compound Z20-4] | 7.59 | 5.57 | 7.29 | – | – | –
C=CC(=O)N1CCN2c3nc(=O)n(-c4c(C)ccnc4C(C)C)c4cc(-c5c(C)ccc6[nH]ncc56)cc(c34)OC[C@@H]2C1 (single isomer, unassigned) [Compound Z19-2] | 7.60 | 4.92 | – | – | 7.62 | –
C=CC(=O)N1CCN2c3nc(=O)n(-c4c(C)ccnc4C(C)C)c4cc(-c5c(C)ccc6[nH]ncc56)c(Cl)c(c34)OC[C@@H]2C1 (atropisomer, axis not shown) [Compound Z26-2-2] | 8.70 | < 5.00 | 8.52 | – | – | –
C=CC(=O)N1CCN2c3nc(=O)n(-c4c(C)ccnc4C(C)C)c4cc(-c5c(C)ccc6[nH]ncc56)c(Cl)c(c34)OC[C@@H]2C1 (single isomer, unassigned) [Compound Z26-1] | 7.51 | – | 7.13 | 4.86 | – | –
C=CC(=O)N1CCN2c3nc(=O)n(-c4c(C)ncnc4C(C)C)c4nc(-c5c(O)cccc5F)c(F)c(c34)OC[C@H]2C1 (single isomer, unassigned) [Compound Z101-2] | 8.52 | < 5.00 | 8.52 | – | – | –
C=CC(=O)N1CCN2c3nc(=O)n(-c4c(C)ncnc4C(C)C)c4nc(-c5c(O)cccc5F)c(F)c(c34)OC[C@H]2C1 (single isomer, unassigned) [Compound Z101-1] | 7.38 | – | 7.25 | < 5.00 | – | –
C=CC(=O)N1CCN2c3nc(=O)n(-c4c(C)ccnc4C4CC4)c4nc(-c5ccccc5F)c(Cl)c(c34)OC[C@H]2C1 (single isomer, unassigned) [Compound Z102-2] | 7.57 | 4.91 | 7.08 | – | – | –
C=CC(=O)N1CCN2c3nc(=O)n(-c4c(C)ccnc4C(C)C)c4cc(-c5c(C)ccc6[nH]ncc56)c(Cl)c(c34)OC[C@@H]2C1 (single isomer, unassigned) [Compound Z26-2] | 9.00 | < 5.00 | 8.40 | – | – | –
C=CC(=O)N1CCN2c3nc(=O)n(-c4c(C)ccnc4C(C)C)c4cc(-c5c(C)ccc6[nH]ncc56)c(Cl)c(c34)OC[C@H]2C1 (atropisomer, axis not shown) [Compound Z30-2-2] | 8.52 | < 5.00 | 8.40 | – | – | –
C=CC(=O)N1CCN2c3nc(=O)n(-c4c(C)ccnc4C(C)C)c4cc(-c5c(O)cccc5F)cc(c34)OC[C@@H]2C1 (single isomer, unassigned) [Compound Z15-1] | 7.77 | 4.65 | 7.70 | – | – | –
C=CC(=O)N1CCN2c3nc(=O)n(-c4c(C)ccnc4C(C)C)c4cc(-c5c(O)cccc5F)c(Cl)c(c34)OC[C@H]2C1 (single isomer, unassigned) [Compound Z29-2] | 8.30 | < 5.00 | 8.22 | – | – | –
[2H]C([2H])([2H])Oc1cccc(F)c1-c1nc2c3c(nc(=O)n2-c2c(C)ccnc2C(C)C)N2CCN(C(=O)C=C)C[C@@H]2COc3c1F (single isomer, unassigned) [Compound Z100-1] | 8.70 | – | – | 4.71 | 8.40 | –
C=CC(=O)N1CCN2c3nc(=O)n(-c4c(C)ccnc4C(C)C)c4cc(-c5c(O)cccc5F)cc(c34)OC[C@@H]2C1 (atropisomer, axis not shown) [Compound Z15-2] | 6.83 | 4.53 | 6.58 | – | – | –
C=CC(=O)N1CCN2c3nc(=O)n(C4CC4)c4cc(-c5c(C)ccc6[nH]ncc56)c(Cl)c(c34)OC[C@@H]2C1 (single isomer, unassigned) [Compound Z17-2] | – | – | – | 4.89 | 7.48 | 7.43
Cc1ccnc(C(C)C)c1-n1c(=O)nc2c3c(c(Cl)c(-c4ccccc4F)nc31)OC[C@H]1CN(C(=O)/C=C/CN(C)C)CCN21 (single isomer, unassigned) [Compound Z237-2] | – | – | – | < 4.52 | 7.32 | 7.33
C=CC(=O)N1CCN2c3nc(=O)n(-c4c(C)ccnc4C(C)C)c4cc(-c5c(C)ccc6[nH]ncc56)c(Cl)c(c34)OC[C@H]2C1 (single isomer, unassigned) [Compound Z30-1] | 7.19 | 4.60 | 7.11 | – | – | –

Now from value to compound:

pIC50 [1] | pIC50 [2] | pIC50 [3] | pIC50 ([2]; Homo sapiens, A549, 120 h) | pIC50 [3, 4] | pIC50 ([1]; Homo sapiens, NCI-H358, 120 h) | SMILES
8.30 | – | – | < 5.00 | 7.66 | – | C=CC(=O)N1CCN2c3nc(=O)n(-c4c(C)ccnc4C(C)C)c4nc(-c5cccc(C(F)(F)F)c5F)c(Cl)c(c34)OC[C@@H]2C1 [Compound Z57]
– | – | – | – | 6.35 | – | C=CC(=O)N1CCN2c3nc(=O)n(-c4cccnc4C(C)C)c4cc(-c5c(C)ccc6[nH]ncc56)c(Cl)c(c34)OC[C@@H]2C1 [Compound Z39]
– | – | – | < 5.00 | 7.70 | 8.30 | C=CC(=O)N1CCN2c3nc(=O)n(-c4c(C)ccnc4C(C)C)c4nc(-c5ccccc5F)c(Cl)c(c34)OC[C@@H]2C1 [Compound Z46]
8.15 | – | 7.85 | 4.90 | – | – | C=CC(=O)N1CCN2c3nc(=O)n(-c4c(C)ccnc4C(C)C)c4cc(-c5c(O)cccc5F)c(Cl)c(c34)OC[C@H]2C1 [Compound Z29]
– | – | – | < 5.00 | 7.54 | 7.39 | C=CC(=O)N1CCN2c3nc(=O)n(-c4c(C)ccnc4C(C)C)c4cc(-c5c(O)cccc5F)cc(c34)OC[C@H]2C1 [Compound Z16, (R)-2-acryloyl-10-(2-fluoro-6-hydroxyphenyl)-8-(2-isopropyl-4-methylpyridin-3-yl)-1,2,3,4,13,13a-hexahydropyrazino[2′,1′:3,4][1,4]oxazepine[5,6,7-de]quinazolin-7 (8H)-one]
– | – | – | 5.42 | 7.82 | 8.30 | C=CC(=O)N1CCN2c3nc(=O)n(-c4ccccc4C(C)C)c4cc(-c5c(C)ccc6[nH]ncc56)c(Cl)c(c34)OC[C@@H]2C1 [Compound Z20]
– | – | – | < 5.00 | 8.05 | 8.52 | C=CC(=O)N1CCN2c3nc(=O)n(-c4c(C)ccnc4C(C)C)c4nc(-c5c(F)cccc5F)c(Cl)c(c34)OC[C@@H]2C1 [Compound Z68]
– | – | – | < 5.00 | 8.05 | 8.15 | C=CC(=O)N1CCN2c3nc(=O)n(-c4c(C)ccnc4C(C)C)c4nc(-c5ccccc5OC(F)(F)F)c(Cl)c(c34)OC[C@@H]2C1 [Compound Z64]
– | – | – | < 5.00 | 7.59 | 8.22 | C=CC(=O)N1CCN2c3nc(=O)n(-c4c(C)ccnc4C(C)C)c4nc(-c5cc(Cl)ccc5F)c(Cl)c(c34)OC[C@@H]2C1 [Compound Z59]
– | – | – | 4.91 | 7.60 | 7.33 | C=CC(=O)N1CCN2c3nc(=O)n(-c4c(C)ccnc4C(C)C)c4cc(-c5c(O)cccc5F)c(Cl)c(c34)OC[C@@H]2C1 [Compound Z31]
– | – | – | 4.64 | 7.26 | 7.20 | C=CC(=O)N1CCN2c3nc(=O)n(C4CC4)c4cc(-c5c(C)ccc6[nH]ncc56)c(Cl)c(c34)OC[C@@H]2C1 [Compound Z17]
8.52 | – | 8.05 | < 5.00 | – | – | C=CC(=O)N1CCN2c3nc(=O)n(-c4c(C)ccnc4C(C)C)c4nc(-c5cccc(F)c5F)c(Cl)c(c34)OC[C@@H]2C1 [Compound Z47]
